According to patent US8193343B2, “Manufacture and products thereof of photosensitizing nanomaterials and their use in photodynamic treatment” (Westfalische Wilhelms-Universitat Munster, priority 2009, dated 2012):

Assay: phosphorescence of singlet oxygen (near IR emission spectrum)
Settings: in CD2Cl2 at room temperature, λexc=670 nm
Procedure: The spectrum was recorded from a suspension of the photosensitizing nanomaterial in CD2Cl2 at room temperature, λexc=670 nm.
The singlet oxygen ^1O2 is produced by reaction of triplet oxygen (^3O2) with the monomeric form of the silicon (IV) phthalocyanine chloride complex, which is present on the surface of the zeolite L crystals, according to an example of the present disclosure. The generation of the singlet oxygen ^1O2 was investigated by measuring the near IR emission spectrum of the photosensitizing nanomaterials 40 in a suspension with deuteriated dichloromethane as the solvent (CD2Cl2). […] No characteristic phosphorescence can be detected.
Fluorescence emission and excitation spectra of the photosensitizing nanomaterial 40 suspended in CH2Cl2 were recorded by using a HORIBA Jobin-Yvon IBH FL-322 Fluorolog 3 spectrometer. The phosphorescence spectrum of ^1O2 in CD2Cl2 was recorded by using a HORIBA Jobin-Yvon IBH FL-322 Fluorolog 3 spectrometer equipped with an air-cooled Hamamatsu H9170-75 (InP/InGaAs) PMT detector.

With `Cl[Si]1(Cl)n2c3c4ccccc4c2N=C2N=C(N=c4c5ccccc5c(n41)=NC1=NC(=N3)c3ccccc31)c1ccccc12` [silicon (IV) phthalocyanine chloride, Si(IV) phthalocyanine dichloride] the “generation of singlet oxygen (1O2), characteristic phosphorescence” value was “does not show any generation of the singlet oxygen”.
